Measured values as given in ChEMBL document CHEMBL1134981, “Pyrrolidine and piperidine analogues of SC-57461A as potent, orally active inhibitors of leukotriene A(4) hydrolase” (Bioorg Med Chem Lett, 2002).

Legend:
[1] = tested on: Mus musculus; test: Ex vivo inhibition of LTB4 production in mouse whole blood at 10 mg/kg; format: functional
[2] = species on record: Homo sapiens; test: Inhibition of leukotriene B4 production in human whole blood; format: functional
[3] = target: T1, Leukotriene A-4 hydrolase (Homo sapiens, UniProt P09960); test: Inhibition of leukotriene A4 hydrolase in human recombinant assay
T1 sequence (P09960 whole entry): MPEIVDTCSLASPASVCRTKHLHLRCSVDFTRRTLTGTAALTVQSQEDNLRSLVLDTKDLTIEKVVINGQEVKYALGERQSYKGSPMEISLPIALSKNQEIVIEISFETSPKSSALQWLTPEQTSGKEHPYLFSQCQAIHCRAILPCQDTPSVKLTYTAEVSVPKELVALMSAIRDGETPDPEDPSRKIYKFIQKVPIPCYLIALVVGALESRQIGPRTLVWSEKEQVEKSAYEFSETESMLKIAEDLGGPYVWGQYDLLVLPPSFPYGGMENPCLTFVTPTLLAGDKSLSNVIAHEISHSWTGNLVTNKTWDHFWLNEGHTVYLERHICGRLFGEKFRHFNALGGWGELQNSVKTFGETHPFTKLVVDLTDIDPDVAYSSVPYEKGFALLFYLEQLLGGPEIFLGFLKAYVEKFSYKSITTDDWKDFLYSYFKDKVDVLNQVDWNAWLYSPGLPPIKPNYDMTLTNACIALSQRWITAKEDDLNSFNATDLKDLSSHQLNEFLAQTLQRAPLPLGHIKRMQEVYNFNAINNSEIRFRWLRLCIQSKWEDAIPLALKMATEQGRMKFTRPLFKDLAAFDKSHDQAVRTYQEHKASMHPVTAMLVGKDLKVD

[4] = species on record: Rattus norvegicus; test: The compound was tested for oral efficacy in rat reversed passive dermal Arthus model; 3-10; format: functional
[5] = tested on: Rattus norvegicus; test: The compound was orally efficacious in rat peritoneal Leukotriene B4 production; format: functional; details: po
[6] = tested on: Rhesus monkey; test: The compound showed excellent potency when dosed orally, inhibiting the production of Leukotriene B4; format: functional, Cercopithecidae; details: Macaca mulatta, po
[7] = species on record: Mus musculus; test: Ex vivo inhibition of LTB4 production in mouse whole blood; format: functional
[8] = species on record: Mus musculus; test: Oral potency for Ex vivo inhibition of LTB4 production in mouse whole blood; format: functional

## NC(=O)C1CCN(CCOc2ccc(Cc3ccccc3)cc2)C1 (configuration not stated)
[1]; Mus musculus, Blood
  inhibition in vivo at 10 mg/kg: 60%
[2]
  IC50: 360 nM

## c1ccc(Cc2ccc(OCCN3CCCC3)cc2)cc1
[2]
  IC50: 120 nM

## CC(=O)NC1CCN(CCOc2ccc(Cc3ccccc3)cc2)C1 (configuration not stated)
[1]; Mus musculus, Blood
  inhibition in vivo at 10 mg/kg: 22%
[2]
  IC50: 420 nM

## OCC1CCN(CCOc2ccc(Cc3ccccc3)cc2)CC1
[1]; Mus musculus, Blood
  inhibition in vivo at 10 mg/kg: 85%
[3]
  IC50: 52 nM
[2]
  IC50: 580 nM

## NC(=O)NC1CCN(CCOc2ccc(Cc3ccccc3)cc2)CC1
[2]
  IC50: 440 nM

## NC1CCN(CCOc2ccc(Cc3ccccc3)cc2)C1 (configuration not stated)
[2]
  IC50: 290 nM

## CCOC(=O)C1CCN(CCOc2ccc(Cc3ccccc3)cc2)CC1
[4]
  ED90: 3 mg/kg
[5]
  ED50: 3 mg/kg
  ED90: 30 mg/kg
[3]
  IC50: 1800 nM
[2]
  IC50: 820 nM
[6]
  ED90: < 10 mg/kg
[7]
  ED90: 3 mg/kg

## CCOC(=O)CNC(=O)C1CCN(CCOc2ccc(Cc3ccccc3)cc2)CC1
[1]; Mus musculus, Blood
  inhibition in vivo at 10 mg/kg: 91%
[3]
  IC50: 110 nM
[2]
  IC50: 700 nM
[8]
  ED90: 3 mg/kg

## NC(=O)NC1CCN(CCOc2ccc(Cc3ccccc3)cc2)C1 (configuration not stated)
[2]
  IC50: 350 nM

## CCOC(=O)C1CCCN(CCOc2ccc(Cc3ccccc3)cc2)C1 (configuration not stated)
[3]
  IC50: > 3000 nM
[2]
  IC50: 1650 nM

## COC(=O)C1CC2CC1CN2CCOc1ccc(Cc2ccccc2)cc1 (configuration not stated)
[1]; Mus musculus, Blood
  inhibition in vivo at 10 mg/kg: 50%
[3]
  IC50: 47 nM
[2]
  IC50: 200 nM

## NC(=O)C1CCN(CCOc2ccc(Cc3ccccc3)cc2)CC1
[1]; Mus musculus, Blood
  inhibition in vivo at 10 mg/kg: 95%
[3]
  IC50: 130 nM
[2]
  IC50: 640 nM
[8]
  ED90: 3 mg/kg

## CC(=O)NC1CCN(CCOc2ccc(Cc3ccccc3)cc2)CC1
[2]
  IC50: 180 nM

## O=C(O)C1CCN(CCOc2ccc(Cc3ccccc3)cc2)CC1
[1]
  inhibition in vivo at 10 mg/kg: 80%
[3]
  IC50: 280 nM
[2]
  IC50: 290 nM

## COC(=O)CC1CCN(CCOc2ccc(Cc3ccccc3)cc2)C1 (configuration not stated)
[1]; Mus musculus, Blood
  inhibition in vivo at 10 mg/kg: 75%
[2]
  IC50: 240 nM
[8]
  ED90: 10 mg/kg

## NC(=O)CC1CCN(CCOc2ccc(Cc3ccccc3)cc2)C1 (configuration not stated)
[1]; Mus musculus, Blood
  inhibition in vivo at 10 mg/kg: 4%
[2]
  IC50: 400 nM

## COC(=O)C1CCN(CCOc2ccc(Cc3ccccc3)cc2)C1 (configuration not stated)
[2]
  IC50: 230 nM

## NC(=O)N1CCN(CCOc2ccc(Cc3ccccc3)cc2)CC1
[2]
  IC50: 2400 nM

## COC(=O)[C@@H]1CCCN1CCOc1ccc(Cc2ccccc2)cc1
[1]; Mus musculus, Blood
  inhibition in vivo at 10 mg/kg: 0%
[2]
  IC50: 1860 nM

## c1ccc(Cc2ccc(OCCN3CCCCC3)cc2)cc1
[1]; Mus musculus, Blood
  inhibition in vivo at 10 mg/kg: 8%

## CN(CCCOc1ccc(Cc2ccccc2)cc1)CCC(=O)O
[1]; Mus musculus, Blood
  inhibition in vivo at 10 mg/kg: > 98%
[2]
  IC50: 49 nM
[8]
  ED90: 1 mg/kg

## CNC(=O)C1CCN(CCOc2ccc(Cc3ccccc3)cc2)CC1
[1]; Mus musculus, Blood
  inhibition in vivo at 10 mg/kg: 92%
[2]
  IC50: 130 nM

## OC1CCN(CCOc2ccc(Cc3ccccc3)cc2)C1 (configuration not stated)
[1]; Mus musculus, Blood
  inhibition in vivo at 10 mg/kg: 50%
[3]
  IC50: 30 nM

## COC(=O)CC1CC2CC1CN2CCOc1ccc(Cc2ccccc2)cc1 (stereo in doubt; 27)
[1]; 10 mg/kg
  Inhibition: 70%

## N#CC1CCN(CCOc2ccc(Cc3ccccc3)cc2)CC1
[1]; Mus musculus, Blood
  inhibition in vivo at 10 mg/kg: 56%

## COC(=O)CC1CC2CC1CN2CCOc1ccc(Cc2ccccc2)cc1 (stereo in doubt; 26)
[1]; Mus musculus, Blood
  inhibition in vivo at 10 mg/kg: 80%
[8]
  ED90: ≥ 10 mg/kg

## c1ccc(Cc2ccc(OCCN3CCC(c4nnn[nH]4)CC3)cc2)cc1
[8]
  ED90: 3 mg/kg
